In US9890407B2, “Method for synthesizing cellulose in vitro” (University of Virginia Patent Foundation, priority 2013, dated 2018):

Columns and labels:
BcsA-Arg580Ala complex = test: Isothermal titration calorimetry, c-di-GMP into BcsA-R580A complex; format: binding, Rhodobacter sphaeroides; conditions: BcsA-R580A in 1 mM LFCE14, 25° C.; read-out: Kd of c-di-GMP (ITC)
Protocol: (§1) FIG. 23A-23B (also referred to as Example 2, Supplementary FIG. 5): Cellulose synthesis activity of BcsA mutants and c-di-GMP binding. (FIG. 23A) Cellulose synthesis assays were performed in inverted membrane vesicles and proteoliposomes as described in the Experimental Procedures. The amount of ^3H-glucose-labeled cellulose produced by each mutant is quantified and graphed. 1 μl of IMV's were used for each mutant. For PL assays, the protein concentrations were matched based on UV absorbance and SDS-PAGE followed by Coomassie staining. The apparent lower activity of the R580A mutant may be due to differences in the relative orientation of the enzyme in the PLs or its overall stability. +/−: Experiments performed in the presence and absence of 30 μM c-di-GMP. All data represent the means±SD for 3 technical replicates. (FIG. 23B) Binding of c-di-GMP to the BcsA-R580A mutant. The ability of the R580A mutant to bind c-di-GMP was assessed using ITC.
(§2) The protein was purified in 1 mM LFCE14 as described above. Measurements were carried out at 25° C. in a MicroCal iTC200 system (GE Healthcare) with 250 μl of BcsA-B in the cell at 9.3 μM for WT and 11 μM for the BcsA-Arg580Ala complex and 400 μM c-di-GMP in the syringe. An initial 0.5 μl injection was followed by 39 1 μl injections spaced 180 s apart with stirring at 700 rpm. The data were fit using Origin 7.0 as provided by the manufacturer.

[1] = molecular target: T1, Rhodobacter sphaeroides BcsA-B complex (cellulose synthase), wild type, BcsA SEQ ID NO: 1, BcsB SEQ ID NO: 3 (Cereibacter sphaeroides, UniProt Q3J125); test: Enzyme-coupled (PK/LDH, NADH oxidation) cellulose synthase assay, ND-reconstituted BcsA-B; format: biochemical; conditions: titration of UDP-Glc at increasing c-di-GMP concentrations
T1 construct: pETDuet, E. coli C43; purified, reconstituted in nanodiscs, proteoliposomes or detergent
T1 sequence (Q3J125 1-788): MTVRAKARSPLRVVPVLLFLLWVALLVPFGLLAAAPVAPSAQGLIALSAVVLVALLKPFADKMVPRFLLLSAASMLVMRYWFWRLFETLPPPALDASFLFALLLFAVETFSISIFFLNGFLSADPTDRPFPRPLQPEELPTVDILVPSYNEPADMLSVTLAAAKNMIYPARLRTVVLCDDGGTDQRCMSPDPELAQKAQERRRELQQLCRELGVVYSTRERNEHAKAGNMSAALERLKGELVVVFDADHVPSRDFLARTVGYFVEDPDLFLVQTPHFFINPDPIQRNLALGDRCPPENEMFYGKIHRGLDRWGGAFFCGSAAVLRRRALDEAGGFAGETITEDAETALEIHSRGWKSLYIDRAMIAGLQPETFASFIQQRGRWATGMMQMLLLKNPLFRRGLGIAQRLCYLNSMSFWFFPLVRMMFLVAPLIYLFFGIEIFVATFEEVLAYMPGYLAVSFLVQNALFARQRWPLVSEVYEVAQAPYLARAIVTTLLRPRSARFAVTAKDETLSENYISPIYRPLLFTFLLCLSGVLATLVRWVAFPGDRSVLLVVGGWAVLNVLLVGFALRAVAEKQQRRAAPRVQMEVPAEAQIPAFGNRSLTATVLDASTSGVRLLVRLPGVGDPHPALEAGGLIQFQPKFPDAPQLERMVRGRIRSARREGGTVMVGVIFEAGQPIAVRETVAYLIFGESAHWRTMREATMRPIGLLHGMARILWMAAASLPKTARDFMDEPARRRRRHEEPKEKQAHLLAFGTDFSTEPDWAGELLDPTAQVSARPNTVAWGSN
T1 sequence (Q3J126 21-725 partner): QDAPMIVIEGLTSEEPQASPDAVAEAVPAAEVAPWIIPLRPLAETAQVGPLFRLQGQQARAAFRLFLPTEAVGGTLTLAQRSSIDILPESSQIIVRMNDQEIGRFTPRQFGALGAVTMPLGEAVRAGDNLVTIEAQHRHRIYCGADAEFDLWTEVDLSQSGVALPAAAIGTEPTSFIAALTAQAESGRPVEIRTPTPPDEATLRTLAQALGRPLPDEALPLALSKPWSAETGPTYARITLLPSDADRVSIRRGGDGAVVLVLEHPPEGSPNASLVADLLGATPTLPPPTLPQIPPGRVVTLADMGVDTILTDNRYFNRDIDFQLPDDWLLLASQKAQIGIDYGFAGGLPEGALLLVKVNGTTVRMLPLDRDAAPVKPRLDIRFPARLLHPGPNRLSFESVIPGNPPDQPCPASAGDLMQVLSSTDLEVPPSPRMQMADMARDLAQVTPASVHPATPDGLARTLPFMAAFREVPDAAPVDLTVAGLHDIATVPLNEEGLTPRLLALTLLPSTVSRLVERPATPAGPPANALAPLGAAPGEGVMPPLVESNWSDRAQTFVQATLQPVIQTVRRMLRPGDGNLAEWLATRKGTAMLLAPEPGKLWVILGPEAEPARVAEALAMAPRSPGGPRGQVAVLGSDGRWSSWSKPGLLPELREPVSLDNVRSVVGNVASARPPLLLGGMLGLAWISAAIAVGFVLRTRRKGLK

[2] = molecular target: T2, Rhodobacter sphaeroides BcsA-B complex, wild type (WT), BcsA SEQ ID NO: 1, BcsB SEQ ID NO: 3 (Cereibacter sphaeroides, UniProt Q3J125); test: Isothermal titration calorimetry, c-di-GMP binding to wild type BcsA-B; conditions: ITC, 1 mM LFCE14, 25° C.
T2 construct: E. coli; purified in LFCE14 detergent for ITC
T2 sequence (Q3J125 1-788): T1 sequence (Q3J125 1-788)
T2 sequence (Q3J126 21-725 partner): T1 sequence (Q3J126 21-725 partner)
Protocol: as §1, §2

[3] = molecular target: T3, Rhodobacter sphaeroides BcsA-B complex, BcsA variant R580A (Arg580Ala; parent BcsA SEQ ID NO: 1), BcsB SEQ ID NO: 3 (Cereibacter sphaeroides, UniProt Q3J125, R580A); test: Isothermal titration calorimetry, c-di-GMP binding to the BcsA-R580A mutant
Protocol: as §1, §2

[4] = molecular target: T3, Rhodobacter sphaeroides BcsA-B complex, BcsA variant R580A (Arg580Ala; parent BcsA SEQ ID NO: 1), BcsB SEQ ID NO: 3; format: biochemical; conditions: c-di-GMP more than 50-fold above its dissociation constant

T3 sequence (Q3J125 entry or part of it R580A, one chain of several): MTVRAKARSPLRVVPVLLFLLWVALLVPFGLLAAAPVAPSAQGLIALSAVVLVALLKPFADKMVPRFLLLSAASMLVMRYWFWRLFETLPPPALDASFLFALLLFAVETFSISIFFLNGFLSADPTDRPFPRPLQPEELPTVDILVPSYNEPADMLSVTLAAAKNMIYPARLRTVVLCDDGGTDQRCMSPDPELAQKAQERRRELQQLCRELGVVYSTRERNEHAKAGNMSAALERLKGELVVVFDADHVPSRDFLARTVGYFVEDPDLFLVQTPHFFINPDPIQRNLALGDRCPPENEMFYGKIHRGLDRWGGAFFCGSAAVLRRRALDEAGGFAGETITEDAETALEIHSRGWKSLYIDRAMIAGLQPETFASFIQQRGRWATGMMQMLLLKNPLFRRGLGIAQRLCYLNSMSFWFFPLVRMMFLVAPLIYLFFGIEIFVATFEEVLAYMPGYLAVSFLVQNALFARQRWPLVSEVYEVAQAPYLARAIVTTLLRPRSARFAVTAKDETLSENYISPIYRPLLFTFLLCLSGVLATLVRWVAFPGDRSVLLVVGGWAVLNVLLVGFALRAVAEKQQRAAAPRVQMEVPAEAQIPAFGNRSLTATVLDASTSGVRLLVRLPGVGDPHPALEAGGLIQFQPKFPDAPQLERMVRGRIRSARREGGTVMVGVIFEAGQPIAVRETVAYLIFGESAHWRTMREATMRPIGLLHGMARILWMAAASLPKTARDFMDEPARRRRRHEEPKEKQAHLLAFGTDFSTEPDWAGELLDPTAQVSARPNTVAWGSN

## Nc1nc2c(ncn2[C@@H]2O[C@@H]3COP(=O)(O)O[C@H]4[C@@H](O)[C@H](n5cnc6c(=O)[nH]c(N)nc65)O[C@@H]4COP(=O)(O)O[C@H]3[C@H]2O)c(=O)[nH]1 [c-di-GMP, cyclic dimeric guanosine monophosphate]
BcsA-Arg580Ala complex
  Kd: 1600 nM
[1]
  effect of c-di-GMP on BcsA's apparent affinity for UDP-Glc: does not alter BcsA's apparent affinity for UDP-Glc
[2]
  Kd: 400 nM
[3]
  Kd: 1600 nM
[3]; ITC, 1 mM LFCE14, 25° C.
  stoichiometry of c-di-GMP binding: ~0.5
[4]
  stimulation of cellulose biosynthesis by c-di-GMP: no further stimulation
